Patent US6368788B1 (priority 1987, dated 2002)
Read-outs that look alike come from different tables or passages of the source. Marks after values point to notes of the source that are not given here.

Experiments:
Staphylococci = experiment: Antibiotic sensitivity (doubling-dilution, MIC-2000) of patient isolates before and after Stage 1; type: cell-based
Experimental: Antibiotics were administered according to established dosages and routes: i.e., penicillin, Ampicillin, oxacillin, tetracycline, erythromycin, garamycin; administered by intramuscular route. Antibiotics were chosen according to the antibiotic sensitivity of the Staphylococci isolated from the respective patients. (Antibiotic sensitivity was determined by testing staphylococcal isolates for their sensitivity in an antibiotic sensitivity doubling-dilution assay with the aid of the semi-automatic MIC-2000 system, Dynatech, USA).
Staphylococci were isolated from patients before and after treatment in Stage 1 with L-Glu-L-Trp in order to determine whether a favorable reversal of T-lymphocyte immunodeficiency might lead to a change in the antibiotic sensitivity. The isolated bacterial colonies following Stage I were typed as follows: namely, in 16 patients S. aureus, in 34, S. epidermidis, in 2 saprophytic Staphylococci. In all cases the same types of Staphylococci were isolated following treatment with L-Glu-L-Trp, but in 4 patients the predominant Staphylococci in the isolates changed from S. aureus to S. epidermidis (n=2), and saprophytic Staphylococci (n=2).
Antibiotic sensitivity of Staphylococci were determined by doubling-dilution methods with the aid of the semiautomatic MIC-2000 system (Dynatech, USA).

hepatitis B = experiment: Children with chronic persistent hepatitis B; type: in vivo, human
Experimental: In accord with a USSR Ministry of Health decision 125 children suffering with chronic persistent hepatitis B were entered into this trial over a two month period. Group 1 consisted of 35 children who received decaris immunomodulatory therapy; Group 2, 38 children who received thymalin treatments; Group 3, […] who received L-Glu-L-Trp; and, Group 4, 32 children who received only conventional symptom specific therapy.
L-Glu-L-Trp was administered at a dose of 2 μg/kg of body mass, im, daily for […], and a repeat (identical) course of treatment was administered 10 days after termination of the first course.

C. albicans = type: in vivo, mice
Pseudomonas aeruginosa = experiment: Survival after acute peritonitis with LD100 dose of Pseudomonas aeruginosa; type: in vivo, mice; settings: 1 MED
Rauscher MuLV = experiment: Anti-viral response to Rauscher MuLV; type: in vivo, mice
From the text: Innate mechanisms of anti-viral immunity are important to survival of the host. The Rauscher murine leukemia virus (MuLV) is an example of a highly virulent animal retrovirus infection, first isolated and characterized by Dr. Rauscher from BALB/c mouse tissues in 1962. […] The virus employed in present GLP/blinded study was a murine leukemia complex known to induce progressive erythroleukemia in mice (i.e., Rauscher MuLV and replication-defective Rauscher spleen focus-forming virus). Disease manifested within about 6 days with death by about 50 days. Measurements of splenomegaly, blood reverse transcriptase, virus plaque assays (i.e., XC-plaque assay for viremia using SC-1 host cells) and serum anti-viral antibody titers were used to assess infection. Spleens achieved about 2.0 grams in weight within 21 days of infection, as compared with a normal spleen weights in an uninfected animals of about 0.1 gram.
Mice were inoculated with Rauscher MuLV complex (0.1 ml/7.8×10^4 PFU/mL) on day 0 and sacrificed on day 21. Test groups were comprised of 10 mice and control groups 6 mice. Control articles included saline and AZT (in drinking water at about 1.25 mg/mouse/day≈63 mg/kg/day/mouse). […] A non-infected group of mice was also sacrificed on day 21 to provide normal control values.
In EXAMPLE 38, SC-1 cells were originally derived from murine embryos, and XC cells (a rat tumor cell line induced by Rous Sarcoma Virus) were obtained from the ATCC in Rockville, Md.

YAC-1 target cells = experiment: NK cytotoxic activity of splenocytes on YAC-1 target cells; type: in vivo, C3H/HeJ mice
Staphylococcus aureus [1] = experiment: Survival after acute peritonitis with LD100 dose of antibiotic-resistant Staphylococcus aureus, prophylactic treatment; settings: for Percentage Survivors: 1 MED
E. coli = experiment: Survival after acute peritonitis with LD100 dose of E. coli; type: in vivo, mice; settings: 1 MED
Staphylococcus aureus [2] = experiment: Survival after Staphylococcus aureus peritonitis, therapeutic treatment 1 hour after challenge; type: in vivo, mice; settings: 1 MED
Experimental: EXAMPLES 32-34, above, test substance (i.e., L-Glu-L-Trp alone or in combination with antibiotic, or antibiotic alone) was injected sc, ip, po one hour after the bacterial challenge.

[3] = tested on: Mycobacterium tuberculosis; set-up: species or system human; settings: in vivo
[4] = After Stage 1 Treatment (L-Glu-L-Trp only)
[5] = 20 mg/kg, days 0, 1, 2, 3, and 4 (Group 8)
[6] = 20 mg/kg, days −2, −1, 0, +1, and +2 (Group 10)
[7] = 25 mg/kg, days 0, 1, 2, 3, and 4
[8] = 50 mg/kg, days 0, 1, 2, 3, and 4
[9] = 100 mg/kg, days 0, 1, 2, 3, and 4
[10] = 200 mg/kg, days 0, 1, 2, 3, and 4

[H]/N=C(/N)N[C@H]1[C@H](O)[C@@H](O)[C@H](O[C@@H]2O[C@@H](C)[C@](O)(C=O)[C@H]2O[C@@H]2O[C@@H](CO)[C@H](O)[C@@H](O)[C@@H]2NC)[C@@H](N/C(N)=N\[H])[C@@H]1O [Streptomycin]
Mean minimum inhibitory concentration (MIC) (Staphylococci; [4]): 3.39 ± 0.66 µg/mL
Mean minimum inhibitory concentration (MIC) (Staphylococci; Before Treatment): 6.71 ± 0.59 µg/mL

c1ccc([C@H]2CN3CCSC3=N2)cc1 [Descaris]
Percent of Subjects Disease Free at 6 Months After Treatment (hepatitis B; Group 1, Pre-Treatment ALCT Activity None): 100%
Percent of Subjects Disease Free at 6 Months After Treatment (hepatitis B; Group 2, Pre-Treatment ALCT Activity Moderate): 67%
Percent of Subjects Disease Free at 6 Months After Treatment (hepatitis B; Group 3, Pre-Treatment ALCT Activity High): 67%

C[C@@H]1[C@H](O)[C@@H](C)/C=C/C=C/C=C/C=C/C=C/C=C/C=C/[C@H](O[C@@H]2O[C@H](C)[C@@H](O)[C@H](N)[C@@H]2O)C[C@@H]2O[C@](O)(C[C@@H](O)C[C@@H](O)[C@H](O)CC[C@@H](O)C[C@@H](O)CC(=O)O[C@H]1C)C[C@H](O)[C@H]2C(=O)O [Amphotericin, reference compound]
Germ Tube (%) (C. albicans; 0.063 mg/kg): 20* %
Germ Tube (%) (C. albicans; 0.125 mg/kg): 17* %
Germ Tube (%) (C. albicans; 0.25 mg/kg): 14* %
Germ Tube (%) (C. albicans; 0.5 mg/kg): 3* %
Germ Tube (%) (C. albicans; 1 mg/kg): 1* %

Gentamycin [reference compound]
Percentage Survivors (Pseudomonas aeruginosa; 24 hours after injection): 27.8* %
Percentage Survivors (Pseudomonas aeruginosa; 48 hours after injection): 27.8* %
Percentage Survivors (Pseudomonas aeruginosa; 96 hours after injection): 27.8* %
Mean minimum inhibitory concentration (MIC) (Staphylococci; [4]): 1.32 ± 0.49 µg/mL
Mean minimum inhibitory concentration (MIC) (Staphylococci; Before Treatment): 5.47 ± 0.92 µg/mL

O=C(N[C@H](CO)[C@H](O)c1ccc([N+](=O)[O-])cc1)C(Cl)Cl [Levomycetin]
Mean minimum inhibitory concentration (MIC) (Staphylococci; [4]): 4.58 ± 0.67 µg/mL
Mean minimum inhibitory concentration (MIC) (Staphylococci; Before Treatment): 9.17 ± 0.36 µg/mL

CN[C@@H]1[C@@H](O)[C@@H](O[C@@H]2[C@@H](O)[C@H](O[C@H]3OC(CN)=CC[C@H]3N)[C@@H](N)C[C@H]2N)OC[C@]1(C)O [Cisomycin]
Mean minimum inhibitory concentration (MIC) (Staphylococci; [4]): 1.59 ± 0.58 µg/mL
Mean minimum inhibitory concentration (MIC) (Staphylococci; Before Treatment): 3.46 ± 0.90 µg/mL

Poly(IC)
Reduction Splenomegaly (%) (Rauscher MuLV; [5]): 27%
Spleen Weight (mean ± SD) (Rauscher MuLV; [5]): 0.37 ± 0.22
Reduction Splenomegaly (%) (Rauscher MuLV; [6]): −78%
Spleen Weight (mean ± SD) (Rauscher MuLV; [6]): 0.72 ± 0.29

NC[C@H]1O[C@H](O[C@H]2[C@H](O)[C@@H](O[C@H]3O[C@H](CO)[C@@H](O)[C@H](N)[C@H]3O)[C@H](N)C[C@@H]2N)[C@H](O)[C@@H](O)[C@@H]1O [Kanamycin]
Mean minimum inhibitory concentration (MIC) (Staphylococci; [4]): 2.09 ± 0.54 µg/mL
Mean minimum inhibitory concentration (MIC) (Staphylococci; Before Treatment): 6.32 ± 0.58 µg/mL

Cc1nnc(SCC2=C(C(=O)O)N3C(=O)[C@@H](NC(=O)Cn4cnnn4)[C@H]3SC2)s1 [Cephamezine]
Mean minimum inhibitory concentration (MIC) (Staphylococci; [4]): 1.33 ± 0.53 µg/mL
Mean minimum inhibitory concentration (MIC) (Staphylococci; Before Treatment): 3.52 ± 0.94 µg/mL

Cc1nnc(SCC2=C(C(=O)O)N3C(=O)[C@@H](NC(=O)Cn4cnnn4)[C@H]3SC2)s1 [Kefzol]
Mean minimum inhibitory concentration (MIC) (Staphylococci; [4]): 1.86 ± 0.93 µg/mL
Mean minimum inhibitory concentration (MIC) (Staphylococci; Before Treatment): 4.61 ± 0.87 µg/mL

CC1(C)S[C@@H]2[C@H](NC(=O)Cc3ccccc3)C(=O)N2[C@H]1C(=O)O [Penicillin]
Mean minimum inhibitory concentration (MIC) (Staphylococci; [4]): 2.52 ± 0.70 µg/mL
Mean minimum inhibitory concentration (MIC) (Staphylococci; Before Treatment): 9.45 ± 0.28 µg/mL

O=P1(N(CCCl)CCCl)NCCCO1 (centres unmarked) [cyclophosphamide, Cyclophosphamide, reference compound]
% Cytotoxicity (mean +/− S.D.) (YAC-1 target cells; dose 50 (μg/kg), reference treatment): 6.4 ± 0.7%
Cytotoxicity Change (%) (YAC-1 target cells; dose 50, vs saline): −25 ↓ %
NK activity (YAC-1 target cells; reference treatment): decreased NK activity

Cc1cn([C@H]2C[C@H](N=[N+]=[N-])[C@@H](CO)O2)c(=O)[nH]c1=O [AZT, reference compound]
Reduction Splenomegaly (%) (Rauscher MuLV; [7]): 46%
Spleen Weight (mean ± SD) (Rauscher MuLV; [7]): 0.31 ± 0.05
Reduction Splenomegaly (%) (Rauscher MuLV; [8]): 33%
Spleen Weight (mean ± SD) (Rauscher MuLV; [8]): 0.35 ± 0.17
Reduction Splenomegaly (%) (Rauscher MuLV; [9]): 52%
Spleen Weight (mean ± SD) (Rauscher MuLV; [9]): 0.29 ± 0.02
Reduction Splenomegaly (%) (Rauscher MuLV; [10]): 46%
Spleen Weight (mean ± SD) (Rauscher MuLV; [10]): 0.31 ± 0.09

Cc1onc(-c2ccccc2)c1C(=O)N[C@@H]1C(=O)N2[C@@H]1SC(C)(C)[C@@H]2C(=O)O [Oxacillin]
Mean minimum inhibitory concentration (MIC) (Staphylococci; [4]): 1.56 ± 0.45 µg/mL
Mean minimum inhibitory concentration (MIC) (Staphylococci; Before Treatment): 5.11 ± 0.63 µg/mL

O=C(Cc1cccs1)N[C@@H]1C(=O)N2C(C(=O)[O-])=C(C[n+]3ccccc3)CS[C@H]12 [Ceporin]
Mean minimum inhibitory concentration (MIC) (Staphylococci; [4]): 1.82 ± 0.67 µg/mL
Mean minimum inhibitory concentration (MIC) (Staphylococci; Before Treatment): 5.69 ± 0.86 µg/mL

CC1(C)S[C@@H]2[C@H](NC(=O)[C@H](N)c3ccccc3)C(=O)N2[C@H]1C(=O)O [Ampicillin, reference compound]
Percentage Survivors (Staphylococcus aureus [1]; 24 hours): 75* %
Percentage Survivors (Staphylococcus aureus [1]; 48 hours): 44.4* %
Percentage Survivors (Staphylococcus aureus [1]; 72 hours): 30.6* %
Mean effective dose (MED) for 100% survival after one LD50 dose of methicillin-sensitive staphylococci (Staphylococcus aureus [1]; ip one hour after bacterial challenge): 100 mg/kg
Percentage Survivors (E. coli; 24 hours after injection): 33.3* %
Percentage Survivors (E. coli; 48 hours after injection): 22.2* %
Percentage Survivors (E. coli; 72 hours after injection): 22.2* %
Mean minimum inhibitory concentration (MIC) (Staphylococci; [4]): 2.64 ± 0.60 µg/mL
Mean minimum inhibitory concentration (MIC) (Staphylococci; Before Treatment): 8.10 ± 0.49 µg/mL
Percentage Survivors (Staphylococcus aureus [2]; 24 hours): 75.0* %
Percentage Survivors (Staphylococcus aureus [2]; 48 hours): 44.4* %
Percentage Survivors (Staphylococcus aureus [2]; 72 hours): 30.6* %

CC(=O)OCC1=C(C(=O)O)N2C(=O)[C@@H](NC(=O)Cc3cccs3)[C@H]2SC1 [Keflin]
Mean minimum inhibitory concentration (MIC) (Staphylococci; [4]): 1.86 ± 0.69 µg/mL
Mean minimum inhibitory concentration (MIC) (Staphylococci; Before Treatment): 4.49 ± 0.93 µg/mL

c1ccc([C@H]2CN3CCSC3=N2)cc1 [decaris]
Considerable Improvement, % of patients [3]: 5%
Considerable Improvement, No. of patients [3]: 1
Improvement, % of patients [3]: 82%
Improvement, No. of patients [3]: 18
No Change, % of patients [3]: 13%
No Change, No. of patients [3]: 3
Patients with closure of degeneration foci and cavities in the lungs [3]: 10
Patients with closure of foci and cavities [3]: 45%
Patients with “considerable improvement” [3]: 5%
Patients with “improvement” [3]: 18
Response rate [3]: 86%
